Measurements published in the Biogen ADME set (Fang et al. 2023).
Values after ≈ are worked out from the molar mass of the structure shown.

Settings: for aqueous solubility: pH 6.8

intrinsic clearance, human liver microsomes [mL/min/kg] | intrinsic clearance, rat liver microsomes [mL/min/kg] | MDR1-MDCK efflux ratio | aqueous solubility [µg/mL] | fraction unbound, human plasma | fraction unbound, rat plasma | SMILES
13 | 36.1 |  |  |  |  | NCc1ccc(-n2cnc3ccccc32)cc1Cl
768 | 1520 | 1.12 | 23.8 (≈ 53.3 µM) | 0.00509 | 0.00257 | Cc1ccc(C(=O)N2CCC(Cc3ccccc3-c3ccccc3)(C(=O)N(C)C)CC2)s1
13.1 | 2060 | 0.668 | 30.7 (≈ 119 µM) |  |  | CCCNC(=O)c1c(C)nn(-c2ccccc2)c1C
5.73 | 236 | 39.4 | 62.3 (≈ 189 µM) |  |  | CC(=O)N1CCC(C(=O)Nc2nccs2)(c2ccccc2)CC1
426 | 6400 | 0.586 |  |  |  | O=C(CSc1ccccn1)N1CCSc2ccccc21
75.2 | 446 |  |  |  |  | CN(C)c1ccnc(C(=O)Nc2ccnn2-c2ccc(C#N)cc2)c1
32.9 | 161 | 0.524 | 36 (≈ 149 µM) |  |  | Cc1cccnc1CNc1ccc(C#N)cc1F
15.5 | 189 | 0.721 | 2.44 (≈ 10 µM) |  |  | O=C(Nc1nc2ccccc2[nH]1)C1CCCCC1
97.7 | 2140 | 1.03 |  |  |  | CC1=CCN(C(=O)c2cc(C)nc3cc(C)cc(C)c23)CC1
174 | 1400 |  |  |  |  | COc1ccc2c(c1)CCCN(C(=O)NCCc1ccccn1)C2
20.5 | 415 |  |  |  |  | N#Cc1cc(F)ccc1Cn1ccnc1-c1ccccn1
120 | 2530 | 0.316 | 11.4 (≈ 45.5 µM) |  |  | Cc1ccc2nc(-c3ccc(N(C)C)cc3)[nH]c2c1
13.7 | 58.3 |  | 44 (≈ 159 µM) |  |  | Cc1cc(C(=O)Nc2ncccc2C)c2ccccc2n1
10 | 114 | 49.3 |  |  |  | CC(=O)Nc1ccccc1CN1CCC(c2nnc3ccccn23)CC1
 |  |  | 28.5 (≈ 92.9 µM) |  |  | O=C(Nc1ccn(-c2ncccc2Cl)n1)c1csnn1
283 | 4220 | 0.591 | 29.4 (≈ 112 µM) |  |  | CN(Cc1cccc(C#N)c1)Cc1ccccc1C#N
20 | 2940 | 10.7 | 4.89 (≈ 12.7 µM) |  |  | O=S(=O)(Nc1cccc(-c2nc3ccccc3[nH]2)c1)c1ccc(Cl)cc1
19.9 | 186 |  |  |  |  | Cc1ccc2[nH]c(CNC(=O)c3cc(C(F)F)nn3C)nc2c1C
13.4 | 463 | 0.966 | 27.2 (≈ 108 µM) |  |  | Nc1nc2ccccc2n1CCCc1ccccc1
≤ 4.74 | 39.3 | 0.725 | 51.4 (≈ 173 µM) |  |  | CCCc1nc(N2CCc3ccccc3C2)ncc1C(=O)O
 |  |  | 8.7 (≈ 32.7 µM) |  |  | COc1cc(C#N)ccc1Oc1nc2ccccc2o1
 |  |  |  | 0.201 | 0.0419 | CC(C)[C@@](C)(O)[C@@H]1CN(c2nc(-c3n[nH]c4ncccc34)c(F)cc2Cl)CCN1

Further lines, the molecule ahead of its results:

SMILES | intrinsic clearance, human liver microsomes [mL/min/kg] | intrinsic clearance, rat liver microsomes [mL/min/kg] | MDR1-MDCK efflux ratio | aqueous solubility [µg/mL] | fraction unbound, human plasma | fraction unbound, rat plasma
O=c1[nH]c2ccccc2n1C1CCN(Cc2csc(COc3ccc(F)cc3)n2)CC1 | 209 | 1090 |  |  |  | 
Cn1c(=O)n(C2CCCC2)c(=O)c2c(F)cccc21 | 23.3 | 415 | 0.69 | 26 (≈ 99 µM) |  | 
Cc1ccc(Cn2nc(C)c(C(N)=O)c2Cl)cc1 | 7.25 | 358 | 0.663 | 24.4 (≈ 92.6 µM) |  | 
CN(c1ncccc1CNc1nc(Nc2ccc3c(c2)CC(=O)N3)ncc1C(F)(F)F)S(C)(=O)=O | 32.2 | 94.5 |  | 94.4 (≈ 186 µM) |  | 
N=c1ccn2c(n1)O[C@@H]1[C@@H](O)[C@@H](CO)O[C@H]12 | ≤ 4.74 | ≤ 10.7 |  |  |  | 
Cc1nc(C2CCNCC2)cc(N(C)C)n1 | ≤ 4.74 | ≤ 10.7 | 4.51 | 38.5 (≈ 175 µM) |  | 
Fc1ccc(-n2nc(C3CCOCC3)nc2-c2cn[nH]c2)c(F)c1 | ≤ 4.74 | 62.7 | 19.6 | 25.9 (≈ 78.1 µM) |  | 
O=C(CNc1ccc(C(=O)N2CCCC2)cc1)N1CCCCC1 | ≤ 4.74 | 92.7 | 5.78 | 54.2 (≈ 172 µM) |  | 
Clc1cccc(Nc2ncnc3[nH]ncc23)c1Cl |  |  |  | 3.23 (≈ 11.5 µM) |  | 
CCc1cc(=O)[nH]c(SCCN2CCCCC2)n1 | ≤ 4.74 | 441 | 3.43 |  |  | 
N#Cc1cc(F)c(N2CCN(CCO)CC2)c(F)c1 | ≤ 4.74 | ≤ 10.7 | 0.524 | 41.3 (≈ 154 µM) |  | 
Cc1nc(C2CCN(Cc3ccc(C(F)(F)F)cc3)CC2)n[nH]1 | 6 | 14.1 |  |  |  | 
N#Cc1ccc(CN2CC(n3cccn3)C2)cc1 | ≤ 4.74 | 20.7 | 0.596 | 36.5 (≈ 153 µM) |  | 
CC(C)c1cc(C(C)C)c(CC(=O)NS(=O)(=O)Oc2c(C(C)C)cccc2C(C)C)c(C(C)C)c1 | 45.9 | 170 | 4.45 |  |  | 
CS(=O)(=O)N1CC(c2n[nH]c3ncccc23)C1 | ≤ 4.74 | ≤ 10.7 | 1.41 | 33.3 (≈ 132 µM) |  | 
COc1ccccc1CC(=O)NC1CCN(C)CC1 | ≤ 4.74 | 54.6 | 6.13 | 43.2 (≈ 165 µM) |  | 
Cc1ccc(-n2cc(C)cn2)c(NC(=O)CN(C)C)c1 | 120 | 436 | 0.559 |  |  | 
O=c1c2sccc2nc2n1CCN(Cc1cc(F)ccc1F)CC2 | 121 | 2180 | 0.463 |  |  | 
O=C(CCCNC(=O)NC1CCCCC1)Nc1cc(C2CC2)n[nH]1 |  |  |  | 43.9 (≈ 132 µM) |  | 
Cc1cccc(C)c1CNC1(CCO)CCOCC1 | ≤ 4.74 | 74.3 | 0.972 |  |  | 

SMILES | intrinsic clearance, human liver microsomes [mL/min/kg] | intrinsic clearance, rat liver microsomes [mL/min/kg] | MDR1-MDCK efflux ratio | aqueous solubility [µg/mL] | fraction unbound, human plasma | fraction unbound, rat plasma
Cc1cc(C(=O)N(C)CC2CCN(CCO)CC2)cc(C)n1 | 7.92 | 29.2 | 1.95 |  |  | 
CNC(=O)c1cc(C2CCN(C)CC2)ncn1 | ≤ 4.74 | ≤ 10.7 | 0.605 | 32.5 (≈ 139 µM) |  | 
Nc1nc(N)c2c(OCC3CCN(Cc4c(Cl)cccc4Cl)CC3)cccc2n1 |  |  | 0.816 | 0.4 (≈ 0.925 µM) |  | 
O=C1CCCN1CCCc1nc(Cc2c(Cl)cccc2Cl)n[nH]1 | 46.1 | 381 | 78.4 |  |  | 
COc1cccc(NC(=O)[C@H]2CCCN(S(=O)(=O)c3ccc(C)cc3)C2)c1 | 38.1 | 2820 | 2.68 | 10 (≈ 25.7 µM) |  | 
Clc1cnc(NCC2(c3ccncc3)CC2)nc1 | 26 | 472 |  |  |  | 
N#CCc1ccc(NC(=O)C2CC2)cc1 |  |  |  | 30.6 (≈ 153 µM) |  | 
CNc1nc(C)nc(N[C@H]2CCC[C@@H](C(=O)NCc3ccc(C#N)cc3C(F)(F)F)C2)n1 | 18.4 | 91.3 | 108 |  |  | 
CCOC(=O)c1ccc(N2CCSCC2)nc1 | 411 | 2980 | 0.309 |  |  | 
COc1ccc(-c2nc(CN3CCC[C@H](O)C3)no2)cc1 | 11.5 | 48 | 0.841 | 36.8 (≈ 127 µM) |  | 
Cc1nn(CCNS(=O)(=O)N2CCOCC2)c(C)c1C | 6.58 | 265 | 8.58 |  |  | 
N#Cc1cnc2cc(F)cc(F)c2c1NC1CCN(CC(N)=O)CC1 | ≤ 4.74 | 27.4 | 15 |  |  | 
Cc1cc(OCc2cc(C#N)ccc2F)ccc1N |  |  |  | 25.4 (≈ 99.2 µM) |  | 
Cc1ccc(C)c2nc3c(cc12)CNCCO3 | 23.7 | 234 | 0.525 |  |  | 
CN(CCSc1ccc2nnc(C(F)F)n2n1)Cc1ccccc1 | 246 | 3180 | 0.653 |  |  | 
NC(=O)Cc1nc(-c2ccc(Cl)cc2Cl)cs1 |  |  |  | 41 (≈ 143 µM) |  | 
Cc1ccc(Oc2ccc(Cl)cc2NC(=O)CN(C)CC(=O)N(C)C)cc1 | 1050 | 2420 | 1.61 |  | 0.00885 | 
CCCCN(CC)c1nc(C)nc2c1c(C)c(C)n2-c1c(C)cc(C)cc1C | 198 | 1380 |  |  |  | 
Cc1ccc(-c2nc(CN3CCOCC3)n(Cc3ccc(F)cc3)n2)o1 | 98.3 | 1400 | 4.11 | 28.9 (≈ 81.2 µM) |  | 
O=c1[nH]c2ccccc2n1C1CCN(S(=O)(=O)Cc2ccccc2)CC1 | 79.4 | 6660 |  | 2.65 (≈ 7.13 µM) |  | 
